Reference: patent US20050095240A1, “NaCT as a target for lifespan expansion and weight reduction” (Medical College of Georgia Research, priority 2002, published 2005)

What was measured:
NaCT in HepG2 cells = target: T1, NaCT in HepG2 cells (Homo sapiens, UniProt Q86YT5); test: Citrate uptake in HepG2 cells (constitutively expressed NaCT); assay type: cell-based; settings: Li+ 2 mM, valproate 0.6 μM, carbamazepine 50 μM
T1 construct: the effect of Li^+ on constitutively expressed NaCT in human liver cells was studied; host or cells: HepG2
T1 sequence (Q86YT5 whole entry): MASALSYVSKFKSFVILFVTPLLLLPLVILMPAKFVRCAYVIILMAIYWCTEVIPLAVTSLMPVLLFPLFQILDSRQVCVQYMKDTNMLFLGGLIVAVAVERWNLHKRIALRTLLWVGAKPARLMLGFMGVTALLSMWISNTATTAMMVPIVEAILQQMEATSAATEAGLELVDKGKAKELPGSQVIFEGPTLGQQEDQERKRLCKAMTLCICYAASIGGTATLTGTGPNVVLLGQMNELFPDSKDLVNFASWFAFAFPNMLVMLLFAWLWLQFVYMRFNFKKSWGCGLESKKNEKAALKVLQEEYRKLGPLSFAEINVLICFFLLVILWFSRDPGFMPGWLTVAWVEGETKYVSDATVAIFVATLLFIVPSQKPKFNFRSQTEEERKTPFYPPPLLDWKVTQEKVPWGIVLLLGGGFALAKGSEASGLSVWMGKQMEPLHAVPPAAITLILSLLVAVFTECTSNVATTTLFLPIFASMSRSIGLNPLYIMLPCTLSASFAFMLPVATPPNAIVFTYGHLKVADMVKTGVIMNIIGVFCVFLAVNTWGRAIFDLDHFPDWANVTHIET
Procedure: (§1) Uptake measurement in human liver cell lines. The human liver cell lines (HepG2 and Huh-7) were cultured to confluency in 24-well culture plates using appropriate culture medium. The HepG2 cell line was obtained from American Type Culture Collection (Manasses, Va.). The Huh-7 cell line (Bode et al., (2002) Am. J. Physiol. 283, G1062-G1073) was provided by Dr. Barrie P. Bode (St. Louis University, St. Louis, Mo.). Uptake measurements in monolayer cultures of these cells were measured as described above for the heterologously expressed NaCTs.

[1] = target: chimeric transporter (human NaCT 496-516 replaced with rat NaCT 500-520) (Homo sapiens, UniProt Q86YT5, F500L/T516A); test: Citrate uptake via human/rat chimeric NaCT in HRPE cells; assay type: cell-based; settings: Li+ 10 mM; citrate 20 μM
Sequence of chimeric transporter (human NaCT 496-516 replaced with rat NaCT 500-520) (Q86YT5 whole entry F500L/T516A): as the sequence (Q86YT5 whole entry) above, with F500L, T516A counted along it

human NaCT = human NaCT (Homo sapiens, UniProt Q86YT5); test: Uptake via human NaCT expressed in HRPE cells; assay type: cell-based
Sequence of human NaCT (Q86YT5 whole entry): as the sequence (Q86YT5 whole entry) above

HepG2 cells = test: Incorporation of citrate and acetate into cellular lipids; assay type: cell-based, human; settings: 24 hours
Excerpt: The cellular lipids were then extracted by n-hexane/isopropanol (3:2, v/v) as described by Schamagl et al. (Scharnagl et al., (2001) Biochem. Pharmacol. 62, 1545-1555).

rat NaCT = target: T2, rat NaCT (Rattus norvegicus, UniProt Q8CJ44); test: Uptake via rat NaCT expressed in HRPE cells; assay type: cell-based
T2 sequence (Q8CJ44 1-572): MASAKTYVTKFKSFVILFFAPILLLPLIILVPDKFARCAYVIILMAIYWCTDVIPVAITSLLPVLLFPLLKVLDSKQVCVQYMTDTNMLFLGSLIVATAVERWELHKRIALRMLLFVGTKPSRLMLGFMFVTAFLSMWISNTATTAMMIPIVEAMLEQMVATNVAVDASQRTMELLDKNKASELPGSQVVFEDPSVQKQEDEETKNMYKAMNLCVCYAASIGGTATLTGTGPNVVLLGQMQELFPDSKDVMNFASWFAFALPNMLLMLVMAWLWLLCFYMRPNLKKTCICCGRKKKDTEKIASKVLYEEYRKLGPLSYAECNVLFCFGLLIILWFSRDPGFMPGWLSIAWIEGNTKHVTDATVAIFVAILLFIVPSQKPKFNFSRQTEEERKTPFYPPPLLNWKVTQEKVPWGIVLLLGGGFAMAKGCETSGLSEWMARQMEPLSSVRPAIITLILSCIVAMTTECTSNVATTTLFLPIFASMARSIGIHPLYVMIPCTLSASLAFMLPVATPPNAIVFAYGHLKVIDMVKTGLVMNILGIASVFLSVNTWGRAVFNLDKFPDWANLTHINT

NaCT in Huh-7 cells = target: T3, NaCT in Huh-7 cells (Homo sapiens, UniProt Q86YT5); test: Citrate uptake in Huh-7 cells (constitutively expressed NaCT); assay type: cell-based; settings: Li+ 2 mM
T3 construct: the effect of Li^+ on constitutively expressed NaCT in human liver cells was studied; endogenous in cells; host or cells: Huh-7 (gift of Dr. Barrie P. Bode)
T3 sequence (Q86YT5 whole entry): as the sequence (Q86YT5 whole entry) above
Procedure: as §1

mouse NaCT = target: T4, mouse NaCT (Mus musculus, UniProt Q67BT3); test: Transport via mouse NaCT expressed in HRPE cells; assay type: cell-based; settings: Li+ 2 mM, valproate 0.6 μM, carbamazepine 50 μM
T4 sequence (Q67BT3 1-572): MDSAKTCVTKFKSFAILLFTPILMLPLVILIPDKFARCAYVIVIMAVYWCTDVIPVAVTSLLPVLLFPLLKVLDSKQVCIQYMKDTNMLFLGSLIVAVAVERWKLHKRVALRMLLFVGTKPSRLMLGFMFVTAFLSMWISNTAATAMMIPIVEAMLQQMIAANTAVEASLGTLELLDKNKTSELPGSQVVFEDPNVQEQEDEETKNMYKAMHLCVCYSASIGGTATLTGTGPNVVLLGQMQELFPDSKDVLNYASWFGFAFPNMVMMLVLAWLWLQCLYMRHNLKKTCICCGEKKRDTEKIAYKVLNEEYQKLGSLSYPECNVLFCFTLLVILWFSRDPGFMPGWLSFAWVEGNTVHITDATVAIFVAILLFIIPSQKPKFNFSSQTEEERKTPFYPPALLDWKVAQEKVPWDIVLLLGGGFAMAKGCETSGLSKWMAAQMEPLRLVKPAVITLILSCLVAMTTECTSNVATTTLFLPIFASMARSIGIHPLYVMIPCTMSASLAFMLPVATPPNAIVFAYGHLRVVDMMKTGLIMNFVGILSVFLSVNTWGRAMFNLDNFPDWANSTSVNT

zebrafish NaCT = zebrafish NaCT (Danio rerio, UniProt A0A2R8QQN0, K78Q); test: Citrate uptake via zebrafish NaCT expressed in HRPE cells; assay type: cell-based
Sequence of zebrafish NaCT (A0A2R8QQN0 2-582 K78Q): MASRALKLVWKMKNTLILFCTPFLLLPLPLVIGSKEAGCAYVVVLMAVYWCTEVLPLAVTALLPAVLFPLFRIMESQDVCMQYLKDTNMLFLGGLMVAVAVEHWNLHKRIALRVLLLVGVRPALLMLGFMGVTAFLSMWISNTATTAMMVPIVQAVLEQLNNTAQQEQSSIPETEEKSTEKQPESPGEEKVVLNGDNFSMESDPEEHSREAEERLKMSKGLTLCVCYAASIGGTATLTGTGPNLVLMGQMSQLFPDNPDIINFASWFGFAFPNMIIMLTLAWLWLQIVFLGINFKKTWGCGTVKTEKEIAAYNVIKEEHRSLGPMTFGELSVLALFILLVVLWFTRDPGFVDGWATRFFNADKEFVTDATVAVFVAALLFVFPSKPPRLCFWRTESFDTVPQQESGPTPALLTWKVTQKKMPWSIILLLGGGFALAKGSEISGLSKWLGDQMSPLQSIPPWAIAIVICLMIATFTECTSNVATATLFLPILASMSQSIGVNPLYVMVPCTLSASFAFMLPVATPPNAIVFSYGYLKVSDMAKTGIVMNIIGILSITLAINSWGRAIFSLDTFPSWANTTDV

[2] = target: Phe→Leu mutant of human NaCT (Homo sapiens, UniProt Q86YT5, F500L); test: Citrate uptake via Phe→Leu mutant of human NaCT in HRPE cells; assay type: cell-based; settings: citrate 20 μM; increasing Li+
Sequence of Phe→Leu mutant of human NaCT (Q86YT5 whole entry F500L): as the sequence (Q86YT5 whole entry) above, with F500L counted along it

[3] = patients under treatment; cited from earlier work
ceNaCT = target: T5, ceNaCT (Caenorhabditis elegans, UniProt P32739, I91S/L182M); test: Uptake via ceNaCT expressed in HRPE cells; settings: Li+ 2 mM, valproate 0.6 μM, carbamazepine 50 μM
T5 sequence (P32739 1-551 I91S/L182M): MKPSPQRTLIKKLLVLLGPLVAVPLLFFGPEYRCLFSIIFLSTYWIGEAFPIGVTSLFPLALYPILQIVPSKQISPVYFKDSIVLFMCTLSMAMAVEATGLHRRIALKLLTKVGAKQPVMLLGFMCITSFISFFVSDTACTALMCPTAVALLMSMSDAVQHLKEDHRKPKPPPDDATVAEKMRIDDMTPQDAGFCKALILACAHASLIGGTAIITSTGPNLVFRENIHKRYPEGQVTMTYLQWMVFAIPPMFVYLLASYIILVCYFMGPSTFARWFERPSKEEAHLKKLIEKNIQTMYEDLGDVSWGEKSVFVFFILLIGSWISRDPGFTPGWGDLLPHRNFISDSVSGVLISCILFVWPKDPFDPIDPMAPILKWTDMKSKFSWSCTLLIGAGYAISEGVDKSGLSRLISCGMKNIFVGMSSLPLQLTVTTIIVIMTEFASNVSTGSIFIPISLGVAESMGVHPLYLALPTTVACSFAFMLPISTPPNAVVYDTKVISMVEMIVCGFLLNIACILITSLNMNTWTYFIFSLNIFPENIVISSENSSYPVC

[4] = substrate: O=C(O)CC(O)(CC(=O)O)C(=O)O; test: cells, lysate or membranes; settings: other: pH 7.5, 37.0 °C
[5] = Li+ 2 mM, valproate 0.6 μM, carbamazepine 50 μM

[Li+] [Li^+, lithium]
Citrate uptake, HepG2 cells (NaCT in HepG2 cells): 21.2 ± 0.6 pmol/min/mg protein
Citrate uptake, HepG2 cells, percent of corresponding control (NaCT in HepG2 cells): 222%
Effect of Li+ on activity of the chimeric transporter [1]: not affected
Increase of affinity for citrate (human NaCT; 10 mM Li+): approximately 7 fold
Stimulation of human NaCT by Li+ (human NaCT; 10 mM Li+, 60 mM Na+): 7 fold
Stimulation of human NaCT by Li+ (human NaCT; 10 mM Li+, 140 mM Na+): 3 fold
Citrate uptake, hNaCT (human NaCT; [5]): 105.2 ± 11.6 pmol/10^6 cells/min
Citrate uptake, hNaCT, percent of corresponding control (human NaCT; [5]): 203%
Stimulation of human NaCT activity (human NaCT; Li+ 2.5 mM): 2.4 fold
EC50 (human NaCT; read-out: Concentration of Li+ needed for half-maximal stimulation of citrate uptake, citrate 20 μM): 2100 ± 700 µM
Stimulation of incorporation of [^14C]citrate into lipid fraction (HepG2 cells; Li+ 2 mM): 2.6±0.1 fold
Effect on incorporation of [^14C]acetate into lipids (HepG2 cells; Li+ 2 or 10 mM): did not have any effect
Citrate uptake, rNaCT (rat NaCT; [5]): 92.3 ± 8.4 pmol/10^6 cells/min
Citrate uptake, rNaCT, percent of corresponding control (rat NaCT; [5]): 62%
IC50 (rat NaCT; read-out: IC50 for inhibition of citrate uptake via rat NaCT, citrate 20 μM): 2100 ± 800 µM
Citrate uptake, Huh-7 cells (NaCT in Huh-7 cells): 20.0 ± 0.5 pmol/min/mg protein
Citrate uptake, Huh-7 cells, percent of corresponding control (NaCT in Huh-7 cells): 196%
Citrate uptake, mNaCT (mouse NaCT): 29.4 ± 1.7 pmol/10^6 cells/min
Citrate uptake, mNaCT, percent of corresponding control (mouse NaCT): 69%
Citrate uptake, zfNaCT (zebrafish NaCT): 298.0 ± 12.6 (61) pmol/10^6 cells/min
Citrate uptake, zfNaCT, percent of corresponding control (zebrafish NaCT): 298.0 ± 12.6 (61) percent
Effect of Li+ on transport function of the mutant [2]: not affected
Plasma concentrations / therapeutic plasma levels in humans [3]: 800 to 2000 µM
Citrate uptake, ceNaCT (ceNaCT): 43.6 ± 0.8 pmol/10^6 cells/min
Citrate uptake, ceNaCT, percent of corresponding control (ceNaCT): 100%

B1: ceNaCT (Caenorhabditis elegans; I91S/L182M) (protein)
chain: MKPSPQRTLIKKLLVLLGPLVAVPLLFFGPEYRCLFSIIFLSTYWIGEAFPIGVTSLFPLALYPILQIVPSKQISPVYFKDSIVLFMCTLSMAMAVEATGLHRRIALKLLTKVGAKQPVMLLGFMCITSFISFFVSDTACTALMCPTAVALLMSMSDAVQHLKEDHRKPKPPPDDATVAEKMRIDDMTPQDAGFCKALILACAHASLIGGTAIITSTGPNLVFRENIHKRYPEGQVTMTYLQWMVFAIPPMFVYLLASYIILVCYFMGPSTFARWFERPSKEEAHLKKLIEKNIQTMYEDLGDVSWGEKSVFVFFILLIGSWISRDPGFTPGWGDLLPHRNFISDSVSGVLISCILFVWPKDPFDPIDPMAPILKWTDMKSKFSWSCTLLIGAGYAISEGVDKSGLSRLISCGMKNIFVGMSSLPLQLTVTTIIVIMTEFASNVSTGSIFIPISLGVAESMGVHPLYLALPTTVACSFAFMLPISTPPNAVVYDTKVISMVEMIVCGFLLNIACILITSLNMNTWTYFIFSLNIFPENIVISSENSSYPVC
Km [4]: 76 ± 14 µM
